Results from patent US20050282877A1, “Method of decreasing inflammation in kidney transplantion using angiotensin receptor blockers” (priority 2004, published 2005).
Each block holds one compound with its values, some of them ahead of it.

Experiments:
[1] = cited from earlier work
plasma proteins = conditions: in vivo; cited from earlier work
urinary H2O2 = test: Detection of urinary hydrogen peroxide (H2O2) in kidney transplant recipients with CAN; format: in vivo, human; conditions: mean±SD
Method: The study, enrollment process, and protocols described herein were approved by the University of Wisconsin Institutional Review Board. Individuals with evidence of chronic allograft dysfunction have allograft functionality greater than 6 months with serum creatinine≧0.3 mg/dl above discharge creatinine. In the absence of acute rejection, these individuals have obstructive uropathy or urinary tract infection. To be eligible for the study, individuals also had concomitant evidence of elevated blood pressure (>140/80) and/or proteinuria (>2+ on dipstick urinalysis or spot urine protein-to-creatinine ratio>1).
(§1) Once identified, study subjects were randomized and treated with either losartan (25-100 mg) as part of their anti-hypertensive regimen or with other types of anti-hypertensive agents, e.g., calcium channel blockers. Agents functioning as AT1R blockers were excluded. Neither group received ACE inhibitors. Study subjects were maintained on their standard immunosuppressive regimen (corticosteroids 5-10 mg orally daily; mycophenolate mofetil 500 to 1000 mg orally twice a day; and calcineurin inhibition with either tacrolimus (target levels 2-5 ng/ml), cyclosporine A (target levels 100-150 ng/ml), or rapamycin (target levels 5-15 ng/ml ).
(§2) Study subjects underwent biopsies at the initiation of the study. Simultaneously, whole blood samples were obtained for analysis of peripheral blood lymphocyte proliferation and stimulated cytokine production. Subsequent whole blood samples were obtained at three-month intervals for serial analyses. […] Estimated glomerular filtration rate (eGFR) was assessed using the second equation derived by Nankivell. […]
The Amplex Red Hydrogen Peroxide/Peroxidase Assay Kit (Molecular Probes, Eugene, Ore.) was used according to the manufacturer's instructions to measure H2O2. […] A microplate reader with fluorescence emission detection at 590 nm was used to measure H2O2 levels. H2O2 concentrations were read from the standard curve.

[2] = test system: peripheral blood lymphocytes (PBLs); test: Proliferation assay ([3H]-thymidine) of CD3/CD28-stimulated PBLs from CAN patients; format: in vivo, human
Method: Once identified, study subjects were randomized and treated with either losartan (25-100 mg) as part of their anti-hypertensive regimen or with other types of anti-hypertensive agents, e.g., calcium channel blockers. Agents functioning as AT1R blockers were excluded. Neither group received ACE inhibitors. Study subjects were maintained on their standard immunosuppressive regimen (corticosteroids 5-10 mg orally daily; mycophenolate mofetil 500 to 1000 mg orally twice a day; and calcineurin inhibition with either tacrolimus (target levels 2-5 ng/ml), cyclosporine A (target levels 100-150 ng/ml), or rapamycin (target levels 5-15 ng/ml ). Eight to nine milliliters of whole blood taken at each time point from each individual were incubated at room temperature in 40 ml ACK lysis buffer (150 mM NH4Cl, 10 mM KHCO3, 0.1 mM Na2EDTA, pH 7.3) for 10 minutes to lyse red blood cells. Samples were then centrifuged at 1000 rpm. The supernatant was discarded. Cells were resuspended in 10 ml complete RPMI media (RPMI-1640, BioWhitaker, Walkersville, Md.) supplemented with FCS (Sigma Aldrich, St. Louis, Mo.); 2 mM L-glutamine (BioWhitaker); 50 μM 2-β-mercaptoethanol (Sigma Aldrich); 100 U/ml penicillin; and 100 μg/ml streptomycin sulfate (Sigma Aldrich). Twenty μl of this sample was removed for cell enumeration. Forty ml of complete RPMI media was then added to the remaining sample and this was centrifuged at 1000 rpm for 10 minutes. The resulting PBL pellet was resuspended in complete RPMI media at a concentration of 1.5×10^6 cells per ml. CD3/CD28-coated plates were coated with antibody diluted in PBS (1 mg/mI). […] Some plates were analyzed immediately after the overnight incubation. Other plates were frozen at 20EC and then analyzed within 30 days of the initial study. [^3H]-Thymidine incorporation was then determined using a Packard TopCount NXT scintillation plate reader. […] The Δ proliferation index was then calculated by assessing the difference between the proliferation index at baseline and the proliferation index at various study time points as indicated.

IFN-Γ = test: ELISpot assay for T cell generation of IFN-Γ in PBLs from CAN patients; format: in vivo, human
Method: Once identified, study subjects were randomized and treated with either losartan (25-100 mg) as part of their anti-hypertensive regimen or with other types of anti-hypertensive agents, e.g., calcium channel blockers. Agents functioning as AT1R blockers were excluded. Neither group received ACE inhibitors. Study subjects were maintained on their standard immunosuppressive regimen (corticosteroids 5-10 mg orally daily; mycophenolate mofetil 500 to 1000 mg orally twice a day; and calcineurin inhibition with either tacrolimus (target levels 2-5 ng/ml), cyclosporine A (target levels 100-150 ng/ml), or rapamycin (target levels 5-15 ng/ml ). Eight to nine milliliters of whole blood taken at each time point from each individual were incubated at room temperature in 40 ml ACK lysis buffer (150 mM NH4Cl, 10 mM KHCO3, 0.1 mM Na2EDTA, pH 7.3) for 10 minutes to lyse red blood cells. Samples were then centrifuged at 1000 rpm. The supernatant was discarded. Cells were resuspended in 10 ml complete RPMI media (RPMI-1640, BioWhitaker, Walkersville, Md.) supplemented with FCS (Sigma Aldrich, St. Louis, Mo.); 2 mM L-glutamine (BioWhitaker); 50 μM 2-β-mercaptoethanol (Sigma Aldrich); 100 U/ml penicillin; and 100 μg/ml streptomycin sulfate (Sigma Aldrich). Twenty μl of this sample was removed for cell enumeration. Forty ml of complete RPMI media was then added to the remaining sample and this was centrifuged at 1000 rpm for 10 minutes. The resulting PBL pellet was resuspended in complete RPMI media at a concentration of 1.5×10^6 cells per ml. ELISpot assays were conducted according to the manufacturer's directions (Cellular Technology Ltd., Cleveland, Ohio). Briefly, after plating cells in the proliferation assay, the balance of the cells unused in that assay were used for the ELISpot assay at a concentration of 3×10^6 cells per ml. One hundred μl of RPMI media were added to each well with a multichannel pipetter. Aliquots of treated and untreated cells (300 μl) were added to the IFN-Γ and IL-5 wells with serial two-fold dilutions. The last row served as a media control. ELISpot plates were incubated for two days at 37EC. Plates were washed three times with PBS and then washed three times with PBS/Tween. Secondary detection antibodies (OptElA, IFN, and IL-5 obtained from the aforementioned kits) were diluted at 4 μl/ml in 1% BSA/PBS and added to the plates for 24 hours at 4EC. The plates were then washed four times with PBS/Tween. Streptavidin alkaline phosphatase 1:1000 (Dako Cytomation, Glostrop, Denmark, catalog no. D0396) 100 μl/well diluted in 1% BSA/PBS/Tween was then added to the plates at room temperature for two hours. […] Plate images were then scanned into computer images and spots analyzed using Immunospot-brand software (from CTL Technologies).

IL-4 or IL-5 = test: ELISpot assay for IL-4 or IL-5 production in PBLs from CAN patients; format: in vivo, human; conditions: following institution of ARB therapy (data not shown)
Method: Once identified, study subjects were randomized and treated with either losartan (25-100 mg) as part of their anti-hypertensive regimen or with other types of anti-hypertensive agents, e.g., calcium channel blockers. Agents functioning as AT1R blockers were excluded. Neither group received ACE inhibitors. Study subjects were maintained on their standard immunosuppressive regimen (corticosteroids 5-10 mg orally daily; mycophenolate mofetil 500 to 1000 mg orally twice a day; and calcineurin inhibition with either tacrolimus (target levels 2-5 ng/ml), cyclosporine A (target levels 100-150 ng/ml), or rapamycin (target levels 5-15 ng/ml ). ELISpot assays were conducted according to the manufacturer's directions (Cellular Technology Ltd., Cleveland, Ohio). Briefly, after plating cells in the proliferation assay, the balance of the cells unused in that assay were used for the ELISpot assay at a concentration of 3×10^6 cells per ml. One hundred μl of RPMI media were added to each well with a multichannel pipetter. Aliquots of treated and untreated cells (300 μl) were added to the IFN-Γ and IL-5 wells with serial two-fold dilutions. The last row served as a media control. ELISpot plates were incubated for two days at 37EC. […] Plate images were then scanned into computer images and spots analyzed using Immunospot-brand software (from CTL Technologies).

[3] = Systolic blood pressure in the study cohort; format: in vivo, human; conditions: every clinic visit at 3-month intervals
Method: FIG. 1A is a graph depicting the systolic blood pressure in the study cohort. (The study cohort is described in the Examples.) Blood pressure was assessed at every clinic visit at 3-month intervals. […] Data shown are mean±standard deviation.”
as §1, §2

[4] = Estimated glomerular filtration rate (eGFR) in the study cohort; format: in vivo, human; conditions: with institution of ARB therapy, compared to control group
Method: FIG. 1B is a graph depicting the estimated glomerular filtration rate (eGFR) in the study cohort. Estimated GFR was calculated using the second equation derived by Nankivell et al. at the time points designated in the Examples. […] The eGFR in the ARB-treated cohort (-o-) declined slightly after treatment as compared to the control group (-▪-). Data shown are mean±standard deviation.
as §1
as §2, with “production.” for “production. Subsequent whole blood samples were obtained at three-month intervals for serial analyses.”

STAT1 = conditions: losartan treatment; cited from earlier work
STAT3 = conditions: losartan treatment; cited from earlier work

Compound: CCCc1nc2c(C)cc(-c3nc4ccccc4n3C)cc2n1Cc1ccc(-c2ccccc2C(=O)O)cc1 [Telmisartan, 4′-[(1,4′-dimethyl-2′-propyl [2,6′-bi-1H-benzimidazol]-1′-yl)methyl]-[1,1′-biphenyl]-2-carboxylic acid]
- solubility in strong acids ([1]; strong acids (except HCl)): sparingly soluble
- solubility in strong bases ([1]; strong bases): soluble
- solubility in water within a pH range ([1]; water, pH range of from 3 to 9): practically insoluble

Compound: CCCCc1nc(Cl)c(C(=O)O)n1Cc1ccc(-c2ccccc2-c2nn[nH]n2)cc1 [active metabolite of losartan]
- plasma-free fraction (plasma proteins): 0.2%

- eGFR [4]: slight reduction
Compound: CCCCc1nc(Cl)c(CO)n1Cc1ccc(-c2ccccc2-c2nnn[nH]2)cc1.[K] [losartan, 2-butyl-4-chloro-1-[p-(o-1H-tetrazol-5-ylphenyl)benzyl]imidazole-5-methanol monopotassium salt]
- urinary H2O2 excretion (urinary H2O2; 6 months of treatment): 2.17 ± 0.42 µM
- urinary H2O2 excretion (urinary H2O2; 9 months of treatment, p<0.05 vs. time 0): 1.65 ± 0.49 µM
- urinary H2O2 (urinary H2O2; baseline (time 0), ARB cohort): 2.51 ± 0.62 µM
- reduction in T lymphocyte proliferation indices versus the control group ([2]; 6 month of losartan treatment, p<0.005): 69±47 % decrease
- reduction in T lymphocyte proliferation indices versus the control group ([2]; 9 month of losartan treatment, p<0.05): 52±21 % decrease
- Δ proliferation index (change from baseline) ([2]; three, six, and nine months, p<0.04): significant reduction
- IFN-Γ producing cells (ELISpot) (IFN-Γ; 3 months, p=0.01 vs control): 4127±1289 spots per 1×10^6 cells
- IFN-Γ producing cells (ELISpot) (IFN-Γ; 6 months, p=0.05 vs control): 3899±1508 spots per 1×10^6 cells
- IFN-Γ producing cells (ELISpot) (IFN-Γ; 9 months, p<0.001 vs control): 3845±1493 spots per 1×10^6 cells
- IFN-Γ producing cells (ELISpot) (IFN-Γ; 12 months, p<0.05 vs control): 4276±1456 spots per 1×10^6 cells
- IL-4 or IL-5 production (IL-4 or IL-5): no significant change
- systolic blood pressure, ARB-treated versus non-ARB-treated cohort [3]: no significant differences
- plasma-free fraction (plasma proteins): 1.3%
- solubility in common organic solvents ([1]; acetonitrile and methyl ethyl ketone): slightly soluble
- solubility in alcohols ([1]; alcohols): soluble
- solubility in water ([1]; water): freely soluble
- phosphorylation of STAT1 (STAT1): decrease phosphorylation
- phosphorylation of STAT3 (STAT3): decrease phosphorylation
